{"source": "patent US20260118345A1", "about": "“METHOD OF EVALUATING INTERCELLULAR INTERACTIONS IN NEUROINFLAMMATION” (FUJIFILM Corporation, priority 2023, published 2026)", "type_in_all_cases": "cell-based, human", "key": {"[1]": {"system": "three-cell-type co-culture of neurons, astrocytes, and microglia", "test": "Neural activity by calcium imaging (BPM), two-dimensional three-cell-type co-culture of neurons, astrocytes and microglia", "conditions": "24 hours after stimulation (TNF-α 7.5 ng/mL or LPS 100 ng/mL)", "method": "Matrigel basement membrane matrix (Corning, 356234) diluted 120-fold with DMEM/F12 (Life technologies, 11320-033) was added to a 96-well plate at 65 μL/well and allowed to stand at 4° C. After 24 hours, the culture medium was replaced with a progenitor cell culture medium and used. Astrocyte precursor cells (XCell Science, XCS-AP-001-1V) were seeded in a 96-well plate at a density of 6×10^4 cells/well, cultured under the conditions of 37° C. and 5% CO2, after culture medium was replaced with the differentiation induction culture medium, further cultured for 5 days to differentiate into astrocytes. […] After centrifugation, the supernatant was removed, the cells were suspended in 1 mL of the co-culture medium, and the number of cells was counted. […] After centrifugation, the supernatant was removed, the cells were suspended in 1 mL of the co-culture medium, and the number of cells was counted. […] In addition, at 24 hours after the stimulation with LPS or TNF-α, the neural activity was evaluated by calcium imaging. […] After incubating for 1 hour under conditions of 37° C. and 5% CO2, the solution was replaced with a warmed (37° C.) recording solution, and the fluorescence was measured for 10 minutes with FDSS (registered trademark)/μcell (Hamamatsu Photonics K. K., C13299). […]"}, "[2]": {"system": "two-cell-type co-culture of neurons and astrocytes", "test": "Neural activity by calcium imaging (BPM), two-dimensional two-cell-type co-culture of neurons and astrocytes", "conditions": "24 hours after stimulation (TNF-α 7.5 ng/mL or LPS 100 ng/mL)", "method": "Matrigel basement membrane matrix (Corning, 356234) diluted 120-fold with DMEM/F12 (Life technologies, 11320-033) was added to a 96-well plate at 65 μL/well and allowed to stand at 4° C. After 24 hours, the culture medium was replaced with a progenitor cell culture medium and used. Astrocyte precursor cells (XCell Science, XCS-AP-001-1V) were seeded in a 96-well plate at a density of 6×10^4 cells/well, cultured under the conditions of 37° C. and 5% CO2, after culture medium was replaced with the differentiation induction culture medium, further cultured for 5 days to differentiate into astrocytes. […] After centrifugation, the supernatant was removed, the cells were suspended in 1 mL of the co-culture medium, and the number of cells was counted. […] In addition, at 24 hours after the stimulation with LPS or TNF-α, the neural activity was evaluated by calcium imaging. […] After incubating for 1 hour under conditions of 37° C. and 5% CO2, the solution was replaced with a warmed (37° C.) recording solution, and the fluorescence was measured for 10 minutes with FDSS (registered trademark)/μcell (Hamamatsu Photonics K. K., C13299). The neural activity was evaluated by quantifying the number of peaks of calcium oscillation using Wave Checker Software (Hamamatsu Photonics K. K.)."}, "NF-κB": {"system": "NF-κB", "test": "NF-κB localization after LPS stimulation, three-cell-type co-culture containing about 0.11% microglia", "conditions": "proportion of microglia about 0.11%", "method": "The amount of cells required for the activated microglia to affect other cells was examined. Two-dimensional three-cell-type co-cultures of astrocytes, neurons, and microglia in which the proportion of the microglia was about 11%, 1.1%, and 0.11% were produced by the same method as in <1> of Test Example 1. In addition, the cells were subjected to LPS stimulation and fixed by the same method as in <1> of Test Example 1. Furthermore, the localization of NF-κB was evaluated by the same method as in <1> of Test Example 1."}}}
{"substance": "lipopolysaccharide [LPS]", "values": [{"measurement": "BPM (the number of peaks of calcium oscillation per minute) as compared with the control", "setting": "[1]", "result": "increase"}, {"measurement": "BPM (the number of peaks of calcium oscillation per minute) as compared with the control", "setting": "[2]", "result": "no change"}, {"measurement": "nuclear translocation of NF-κB", "setting": "NF-κB; 1 hour after the LPS treatment", "result": "only some cells"}, {"measurement": "nuclear translocation of NF-κB", "setting": "NF-κB; 3 hours and 6 hours after the LPS treatment", "result": "many cells"}]}
